The viability is a read-out of living cells in per cent, often relative to untreated cells.

The subject of assay [1] is solid tumor xenograft panel. The experiment in a line: Xenograft pharmacodynamic analysis (immunoblot of tumor lysates). It counts as in vivo, mice. The settings on record: 40 mg/kg, 6 hours post-dosing, high MCL-1:BCL-xL ratio tumors. A general note: Immunoblotting shows a protein as a band on a membrane.
Procedure: Each tumor was divided into three parts. Two parts were snap frozen in liquid nitrogen and stored at −80° C. The third part was preserved in 10% neutral buffered formalin for 24 hours then stored in 70% ethanol at ambient temperature. Whole cell lysates from one snap frozen part were prepared by disruption/homogenation at 4° C. in a 2 ml conical-end microfuge tube containing two stainless steel beads ( 5/32″, grade 25, Ball Supply Corp) and 0.4 ml lysis buffer [1% Triton X-100, 30 mM Tris pH 7.4, 1 mM EDTA and protease (complete, mini, EDTA-free, Roche) and phosphatase (PhosSTOP, Roche) cocktail inhibitors] using a Qiagen Lyser II, shaking at 30 Hz for 2 minutes. 200 μl of pre-chilled 3×RIPA (Cell Signaling Technology) containing protease and phosphatase cocktail inhibitors was added to the homogenate, rotated at 4° C. for 10 minutes, and microcentrifuged at 12 kpm for 10 minutes at 4° C. The supernatant was removed, normalized for protein content using a BCA kit (Pierce, Rockford, Ill.) and stored at −80° C. For Western blots, 5 μg of lysate were subjected to SDS-PAGE except for cleaved PARP analysis, which required loading of 0.5 μg of lysate.
Assay [2] has as its system 23 lung, breast, ovarian, colorectal, and prostate cell lines. The assay can be described thus: 18 hour viability assay (ATP quantitation). The settings on record: Homo sapiens, 100 nM, range over 23 cell lines, read-out: cell viability relative to DMSO-negative control. It counts as cell-based.

In the case of `CCc1cnn2c(NCc3ccc[n+]([O-])c3)cc(N3CCCC[C@H]3CCO)nc12` [SCH 727965 (Dinaciclib)], in assay [1], the “apoptosis (cleaved PARP) in tumors” value is on record as “induced apoptosis”. Besides, the viability at 0.1 µM in assay [2] lay within 23 to 102%.

The values above are taken from patent US20150051227A1, “PREDICTIVE BIOMARKER USEFUL FOR CANCER THERAPY MEDIATED BY A CDK INHIBITOR” (Merck Sharp & Dohme Corp., priority 2012, published 2015).
